Measured values published in patent US8765098B2, “Star polymers, methods of preparation thereof, and uses thereof” (International Business Machines Corporation, priority 2010, dated 2014).

Test: Appearance of aqueous mixtures of star polymer, dye alone and loaded star polymers (FIG. 10)
Type: physicochemical
Details: in water, FIG. 10 vials A-D
Protocol: The solution was added drop-wise to water (0.9 mL) with rapid stirring, causing the water to rapidly and uniformly color from the dye. Excess solid dye material not adsorbed to the star polymer was removed by passing the mixture through a 0.2 micrometer syringe filter, thereby forming a clear and uniformly colored aqueous solution. The further addition of water had no visible effect on the homogeneity of the solution.
FIG. 10 is a photograph of four aqueous mixtures. […] The vial labeled C is an aqueous mixture of 5,10,15,20-(3,5-ditertbutylphenyl)porphyrin (M=2H) (DTBP) alone in water.

appearance of aqueous solution / mixture: clear and colorless
Compound: CC(C)(C)c1cc(-c2c3nc(c(-c4cc(C(C)(C)C)cc(C(C)(C)C)c4)c4ccc([nH]4)c(-c4cc(C(C)(C)C)cc(C(C)(C)C)c4)c4nc(c(-c5cc(C(C)(C)C)cc(C(C)(C)C)c5)c5ccc2[nH]5)C=C4)C=C3)cc(C(C)(C)C)c1 [DTBP, 5,10,15,20-(3,5-ditertbutylphenyl)porphyrin (M=2H)]
